# Tests used:
# EphA3 antigen = EphA3 antigen (UniProt P29320); experiment: ELISA on EphA3 antigen
# [1] = test system: peripheral blood cells from essential thrombocythemia (ET) patient; experiment: Apoptosis induction (Annexin V flow cytometry), ET primary cells; type: cell-based, human; settings: sample PB-1, ET; camptothecin 10 μM positive control; 24 hours
# Description: (§1) An engineered human activating antibody that binds to EphA3 was evaluated for the ability to induce apoptosis in vitro in primary cells isolated from patients or individuals suffering from myeloproliferative disorders. Cells were seeded at 2.5×10^5 cells/well in 96-well “U”-bottom plates in 0.1 ml culture medium (RPMI 1640 with 10% fetal bovine serum). Anti-EphA3 antibody or human IgG1 isotype control antibody was added to final concentrations between 10 μg/ml and 1 ng/ml and the plates were incubated at 37° C. and 5% carbon dioxide in a tissue-culture incubator for 24 hours. As a positive control for apoptosis induction, separate cell samples were incubated with camptothecin (10 μM; Calbiochem). At the end of the incubation, cells were harvested and washed by centrifugation at 1000 rpm for 5 min followed by incubation in 0.1 ml of 1× Annexin V binding buffer (BD Pharmingen, Cat #556547, component no. 51-66121E) containing 5 μl FITC-conjugated Annexin V (BD Pharmingen, component no. 51-65874×) and 5 μl Propidium Iodide (component no. 51-66211E) for 15 minutes at room temperature in the dark. Four hundred μl of 1× binding buffer was added to each tube and annexin V-staining apoptotic cells were identified by flow cytometry. FIG. 4 provides data showing apoptosis activity of a human engineered antibody.
# [2] = test system: peripheral blood cells from polycythemia vera (PV) patient; experiment: Apoptosis induction (Annexin V flow cytometry), PV primary cells; type: cell-based, human; settings: sample PB-2, PV; camptothecin 10 μM positive control; 24 hours
# Description: as §1
# [3] = test system: bone marrow cells from AML patients; experiment: Apoptosis induction (Annexin V flow cytometry), AML primary cells; type: cell-based, human; settings: camptothecin 10 μM positive control, 24 hours
# Description: An engineered human activating antibody that binds to EphA3 was evaluated for the ability to induce apoptosis in vitro in primary cells isolated from patients or individuals suffering from myeloproliferative disorders. Cells were seeded at 2.5×10^5 cells/well in 96-well “U”-bottom plates in 0.1 ml culture medium (RPMI 1640 with 10% fetal bovine serum). Anti-EphA3 antibody or human IgG1 isotype control antibody was added to final concentrations between 10 μg/ml and 1 ng/ml and the plates were incubated at 37° C. and 5% carbon dioxide in a tissue-culture incubator for 24 hours. As a positive control for apoptosis induction, separate cell samples were incubated with camptothecin (10 μM; Calbiochem). […]
# In these samples, in each case in which CD123^+CD34^+CD38^− leukemic stem cells (LSC) could be identified, 100% of these LSC were also positive for EphA3 expression. In the majority of samples, there is good correlation between the percent of cells killed either by ADCC or apoptosis mediated by an engineered human anti-EphA3 antibody and the proportion of cells detected as positive for EphA3 by flow cytometry, indicating specificity of the antibody for EphA3-expressing cells.
# UniProt P29320, sequence (P29320 21-541 limits assumed): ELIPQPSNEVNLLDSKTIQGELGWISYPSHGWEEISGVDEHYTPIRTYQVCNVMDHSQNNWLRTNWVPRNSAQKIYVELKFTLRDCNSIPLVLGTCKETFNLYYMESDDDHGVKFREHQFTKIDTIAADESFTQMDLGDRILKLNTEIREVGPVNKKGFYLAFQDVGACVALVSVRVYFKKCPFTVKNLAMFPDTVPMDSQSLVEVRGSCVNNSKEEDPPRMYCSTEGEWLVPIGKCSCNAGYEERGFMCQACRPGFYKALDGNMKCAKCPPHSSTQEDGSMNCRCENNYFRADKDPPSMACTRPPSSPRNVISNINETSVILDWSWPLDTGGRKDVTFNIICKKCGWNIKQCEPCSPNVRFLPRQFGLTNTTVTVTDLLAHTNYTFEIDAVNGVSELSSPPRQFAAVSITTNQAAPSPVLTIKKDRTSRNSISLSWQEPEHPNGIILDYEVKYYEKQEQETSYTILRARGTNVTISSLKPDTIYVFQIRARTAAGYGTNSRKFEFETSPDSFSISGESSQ
AFFINITY (EphA3 antigen),Molecule,Camptothecin-mediated apoptosis (% cell death) [1],Camptothecin-mediated apoptosis (% cell death) [2],"Camptothecin-mediated apoptosis (% cell death) ([3]; sample BM, 06, AML)","Camptothecin-mediated apoptosis (% cell death) ([3]; sample BM, 07, AML)"
2.5 nM,monoclonal antibody IIIA4,,,,
,"CC[C@@]1(O)C(=O)OCc2c1cc1n(c2=O)Cc2cc3ccccc3nc2-1 [Camptothecin, camptothecin]",78%,73.2%,59.8%,47.8%

# Reference: patent US8834870B2, “Treatment of leukemias and chronic myeloproliferative diseases with antibodies to EphA3” (Kalobios Pharmaceuticals, Inc., priority 2009, dated 2014)
